Assay results from patent US4791059A, “Process for preparing lipase” (Suntory Limited, priority 1984, dated 1988).

Tested on: lipase
Assay: Inhibition and activation of lipase activity by divalent metal ions, SH reagent and surface-active agents
Assay type: biochemical, Staphylococcus capitis
Procedure: The effects of the divalent metal ions, SH reagent and surface-active agents on the lipase activity were evaluated by measuring the residual activities after treatment. […] The lipase activity is increased 3-fold to 5-fold by the presence of Ca^2+.
The lipase activity is more than 90% inhibited by 2 mM sodium laurylsulfate (SDS), 2 mM iodine acetamide, 0.1% Tween 20, 0.1% Tween 80, and 0.1% Triton X-100.
One milliliter of olive oil is added to a test tube (.phi.25×200 mm) containing 5 ml of a reaction mixture consisting of 25 mM of a Tris-HCl buffer (pH 8.0) and 10 mM of CaCl2, the tube is stirred vigorously with a mixer, and 0.5 ml of an enzyme solution is added to the tube. The reaction is carried out during which the tube is shaken at 300 rpm on a reciprocating shaker. The reaction is stopped on the addition of 20 ml of ethanol and the fatty acids formed are titrated with 0.05 N of an aqueous sodium hydroxide solution. The control values are likewise determined by titrating the solution obtained by first adding ethanol to a reaction mixture of the composition and then adding an enzyme solution to the same. According to a proposal by Enzyme Nomenclature; recommendations (1978) of the nomenclature committee of the International Union of Biochemistry (I.U.B.), Academic Press, a unit of lipase activity is defined as that amount of lipase required to liberate 1 μmole of fatty acids per minute under reaction conditions.

Compound	inhibition of lipase activity (residual activity after treatment) (10 mM)	also measured
[Ca+2] [Ca^2+]	No inhibition	
[Cu+2] [Cu^2+]	No inhibition	
[Fe+2] [Fe^2+]		inhibition of lipase activity (residual activity after treatment) (1 mM): No inhibition
[Mg+2] [Mg^2+]	No inhibition	
[Mn+2] [Mn^2+]	No inhibition	
CCCCCCCC/C=C\CCCCCCCC(=O)OCCOCC(OCCO)C1OCC(OCCO)C1OCCO (stereo not shown) [Tween 80]		inhibition of lipase activity (0.1%): more than 90%
[Zn+2] [Zn^2+]	No inhibition	
NC(=O)CI [iodine acetamide]		inhibition of lipase activity (2 mM): more than 90%
CCCCCCCCCCCCOS(=O)(=O)[O-].[Na+] [sodium laurylsulfate (SDS), sodium laurylsulfate]		inhibition of lipase activity (2 mM): more than 90%
Triton X-100		inhibition of lipase activity (0.1%): more than 90%
